Source: the supplement of paper PMC10307832

Key:
Motesanib + Luminespib = compound: CC1(C)CNc2cc(NC(=O)c3cccnc3NCc3ccncc3)ccc21 [Motesanib] + CCNC(=O)c1noc(-c2cc(C(C)C)c(O)cc2O)c1-c1ccc(CN2CCOCC2)cc1 [Luminespib] (partner 0.01 µM); assay: relative viability (nuclei count vs DMSO), 5 days (fraction); higher = more cells survive
Summary of the method: (§1)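 Dosing by pin tool came one day after lung cancer cell lines were seeded in 1536-well plates, using either one drug or a fixed anchor-drug dose plus five library-drug doses (not always all listed) in √10 steps. After 5 days, nuclei were counted on 4× images. Relative viability is treated-well nuclei count divided by vehicle-well nuclei count, and values are medians of duplicate plates.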

Motesanib + Dasatinib = compound: CC1(C)CNc2cc(NC(=O)c3cccnc3NCc3ccncc3)ccc21 [Motesanib] + Cc1nc(Nc2ncc(C(=O)Nc3c(C)cccc3Cl)s2)cc(N2CCN(CCO)CC2)n1 [Dasatinib] (partner 0.075 µM); assay: as above
Summary of the method: as §1

NCI-H1623
relative viability (Motesanib + Luminespib; first compound 0.01 µM): 0.605 | relative viability (Motesanib + Luminespib; first compound 0.03162 µM): 0.506 | relative viability (Motesanib + Luminespib; first compound 0.1 µM): 0.49 | relative viability (Motesanib + Luminespib; first compound 0.3162 µM): 0.306 | relative viability (Motesanib + Luminespib; first compound 1 µM): 0.515 | relative viability (Motesanib + Dasatinib; first compound 0.01 µM): 0.481 | relative viability (Motesanib + Dasatinib; first compound 0.03162 µM): 0.567 | relative viability (Motesanib + Dasatinib; first compound 0.1 µM): 0.562 | relative viability (Motesanib + Dasatinib; first compound 0.3162 µM): 0.556 | relative viability (Motesanib + Dasatinib; first compound 1 µM): 0.538

LC-2-ad
relative viability (Motesanib + Luminespib; first compound 0.01 µM): 1.03 | relative viability (Motesanib + Luminespib; first compound 0.03162 µM): 1.01 | relative viability (Motesanib + Luminespib; first compound 0.1 µM): 0.959 | relative viability (Motesanib + Luminespib; first compound 0.3162 µM): 1.07 | relative viability (Motesanib + Luminespib; first compound 1 µM): 1.19 | relative viability (Motesanib + Dasatinib; first compound 0.01 µM): 0.539 | relative viability (Motesanib + Dasatinib; first compound 0.03162 µM): 0.575 | relative viability (Motesanib + Dasatinib; first compound 0.1 µM): 0.745 | relative viability (Motesanib + Dasatinib; first compound 0.3162 µM): 0.503 | relative viability (Motesanib + Dasatinib; first compound 1 µM): 0.496

CAL-12T
relative viability (Motesanib + Luminespib; first compound 0.01 µM): 0.371 | relative viability (Motesanib + Luminespib; first compound 0.03162 µM): 0.375 | relative viability (Motesanib + Luminespib; first compound 0.1 µM): 0.195 | relative viability (Motesanib + Luminespib; first compound 0.3162 µM): 0.567 | relative viability (Motesanib + Luminespib; first compound 1 µM): 0.175 | relative viability (Motesanib + Dasatinib; first compound 0.01 µM): 0.414 | relative viability (Motesanib + Dasatinib; first compound 0.03162 µM): 0.339 | relative viability (Motesanib + Dasatinib; first compound 0.1 µM): 0.479 | relative viability (Motesanib + Dasatinib; first compound 0.3162 µM): 0.522 | relative viability (Motesanib + Dasatinib; first compound 1 µM): 0.546

RERF-LC-KJ
relative viability (Motesanib + Luminespib; first compound 0.01 µM): 1.31 | relative viability (Motesanib + Luminespib; first compound 0.03162 µM): 1.2 | relative viability (Motesanib + Luminespib; first compound 0.1 µM): 1.12 | relative viability (Motesanib + Luminespib; first compound 0.3162 µM): 1.38 | relative viability (Motesanib + Luminespib; first compound 1 µM): 1.27 | relative viability (Motesanib + Dasatinib; first compound 0.01 µM): 0.92 | relative viability (Motesanib + Dasatinib; first compound 0.03162 µM): 0.803 | relative viability (Motesanib + Dasatinib; first compound 0.1 µM): 0.806 | relative viability (Motesanib + Dasatinib; first compound 0.3162 µM): 0.811 | relative viability (Motesanib + Dasatinib; first compound 1 µM): 0.839

NCI-H1650
relative viability (Motesanib + Luminespib; first compound 0.01 µM): 0.181 | relative viability (Motesanib + Luminespib; first compound 0.03162 µM): 0.179 | relative viability (Motesanib + Luminespib; first compound 0.1 µM): 0.185 | relative viability (Motesanib + Luminespib; first compound 0.3162 µM): 0.19 | relative viability (Motesanib + Luminespib; first compound 1 µM): 0.2 | relative viability (Motesanib + Dasatinib; first compound 0.01 µM): 0.374 | relative viability (Motesanib + Dasatinib; first compound 0.03162 µM): 0.337 | relative viability (Motesanib + Dasatinib; first compound 0.1 µM): 0.33 | relative viability (Motesanib + Dasatinib; first compound 0.3162 µM): 0.329 | relative viability (Motesanib + Dasatinib; first compound 1 µM): 0.298

BEN
relative viability (Motesanib + Luminespib; first compound 0.01 µM): 0.331 | relative viability (Motesanib + Luminespib; first compound 0.03162 µM): 0.46 | relative viability (Motesanib + Luminespib; first compound 0.1 µM): 0.393 | relative viability (Motesanib + Luminespib; first compound 0.3162 µM): 0.498 | relative viability (Motesanib + Luminespib; first compound 1 µM): 0.387 | relative viability (Motesanib + Dasatinib; first compound 0.01 µM): 0.286 | relative viability (Motesanib + Dasatinib; first compound 0.03162 µM): 0.342 | relative viability (Motesanib + Dasatinib; first compound 0.1 µM): 0.333 | relative viability (Motesanib + Dasatinib; first compound 0.3162 µM): 0.325 | relative viability (Motesanib + Dasatinib; first compound 1 µM): 0.343

EMC-BAC-2
relative viability (Motesanib + Luminespib; first compound 0.01 µM): 1.2 | relative viability (Motesanib + Luminespib; first compound 0.03162 µM): 1.16 | relative viability (Motesanib + Luminespib; first compound 0.1 µM): 1.14 | relative viability (Motesanib + Luminespib; first compound 0.3162 µM): 1.16 | relative viability (Motesanib + Luminespib; first compound 1 µM): 1.05 | relative viability (Motesanib + Dasatinib; first compound 0.01 µM): 0.292 | relative viability (Motesanib + Dasatinib; first compound 0.03162 µM): 0.34 | relative viability (Motesanib + Dasatinib; first compound 0.1 µM): 0.342 | relative viability (Motesanib + Dasatinib; first compound 0.3162 µM): 0.339 | relative viability (Motesanib + Dasatinib; first compound 1 µM): 0.303

LU99A
relative viability (Motesanib + Luminespib; first compound 0.01 µM): 0.228 | relative viability (Motesanib + Luminespib; first compound 0.03162 µM): 0.187 | relative viability (Motesanib + Luminespib; first compound 0.1 µM): 0.336 | relative viability (Motesanib + Luminespib; first compound 0.3162 µM): 0.243 | relative viability (Motesanib + Luminespib; first compound 1 µM): 0.25 | relative viability (Motesanib + Dasatinib; first compound 0.01 µM): 0.636 | relative viability (Motesanib + Dasatinib; first compound 0.03162 µM): 0.453 | relative viability (Motesanib + Dasatinib; first compound 0.1 µM): 0.681 | relative viability (Motesanib + Dasatinib; first compound 0.3162 µM): 0.606 | relative viability (Motesanib + Dasatinib; first compound 1 µM): 0.524

ABC-1
relative viability (Motesanib + Luminespib; first compound 0.01 µM): 0.637 | relative viability (Motesanib + Luminespib; first compound 0.03162 µM): 0.867 | relative viability (Motesanib + Luminespib; first compound 0.1 µM): 0.556 | relative viability (Motesanib + Luminespib; first compound 0.3162 µM): 0.716 | relative viability (Motesanib + Luminespib; first compound 1 µM): 0.866 | relative viability (Motesanib + Dasatinib; first compound 0.01 µM): 0.518 | relative viability (Motesanib + Dasatinib; first compound 0.03162 µM): 0.544 | relative viability (Motesanib + Dasatinib; first compound 0.1 µM): 0.605 | relative viability (Motesanib + Dasatinib; first compound 0.3162 µM): 0.65 | relative viability (Motesanib + Dasatinib; first compound 1 µM): 0.619

NCI-H2170
relative viability (Motesanib + Luminespib; first compound 0.01 µM): 0.628 | relative viability (Motesanib + Luminespib; first compound 0.03162 µM): 0.726 | relative viability (Motesanib + Luminespib; first compound 0.1 µM): 0.39 | relative viability (Motesanib + Luminespib; first compound 0.3162 µM): 0.734 | relative viability (Motesanib + Luminespib; first compound 1 µM): 0.645 | relative viability (Motesanib + Dasatinib; first compound 0.01 µM): 0.533 | relative viability (Motesanib + Dasatinib; first compound 0.03162 µM): 0.507 | relative viability (Motesanib + Dasatinib; first compound 0.1 µM): 0.463 | relative viability (Motesanib + Dasatinib; first compound 0.3162 µM): 0.511 | relative viability (Motesanib + Dasatinib; first compound 1 µM): 0.57

NCI-H2347
relative viability (Motesanib + Luminespib; first compound 0.01 µM): 0.858 | relative viability (Motesanib + Luminespib; first compound 0.03162 µM): 0.254 | relative viability (Motesanib + Luminespib; first compound 0.1 µM): 0.5 | relative viability (Motesanib + Luminespib; first compound 0.3162 µM): 0.48 | relative viability (Motesanib + Luminespib; first compound 1 µM): 0.4 | relative viability (Motesanib + Dasatinib; first compound 0.01 µM): 0.299 | relative viability (Motesanib + Dasatinib; first compound 0.03162 µM): 0.302 | relative viability (Motesanib + Dasatinib; first compound 0.1 µM): 0.344 | relative viability (Motesanib + Dasatinib; first compound 0.3162 µM): 0.3 | relative viability (Motesanib + Dasatinib; first compound 1 µM): 0.305

NCI-H1993
relative viability (Motesanib + Luminespib; first compound 0.01 µM): 0.923 | relative viability (Motesanib + Luminespib; first compound 0.03162 µM): 0.734 | relative viability (Motesanib + Luminespib; first compound 0.1 µM): 0.826 | relative viability (Motesanib + Luminespib; first compound 0.3162 µM): 0.863 | relative viability (Motesanib + Luminespib; first compound 1 µM): 0.932 | relative viability (Motesanib + Dasatinib; first compound 0.01 µM): 0.629 | relative viability (Motesanib + Dasatinib; first compound 0.03162 µM): 0.509 | relative viability (Motesanib + Dasatinib; first compound 0.1 µM): 0.639 | relative viability (Motesanib + Dasatinib; first compound 0.3162 µM): 0.63 | relative viability (Motesanib + Dasatinib; first compound 1 µM): 0.588

NCI-H322M
relative viability (Motesanib + Luminespib; first compound 0.01 µM): 0.913 | relative viability (Motesanib + Luminespib; first compound 0.03162 µM): 0.951 | relative viability (Motesanib + Luminespib; first compound 0.1 µM): 0.88 | relative viability (Motesanib + Luminespib; first compound 0.3162 µM): 0.842 | relative viability (Motesanib + Luminespib; first compound 1 µM): 0.949 | relative viability (Motesanib + Dasatinib; first compound 0.01 µM): 0.234 | relative viability (Motesanib + Dasatinib; first compound 0.03162 µM): 0.216 | relative viability (Motesanib + Dasatinib; first compound 0.1 µM): 0.268 | relative viability (Motesanib + Dasatinib; first compound 0.3162 µM): 0.26 | relative viability (Motesanib + Dasatinib; first compound 1 µM): 0.262
